Laboratory results reported in PubChem BioAssay (NCI).
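Briefly, cells in 96-well plates were exposed to five compound concentrations for 48 h, and endpoints were estimated by linear interpolation. The concentration for 50% growth inhibition is given as GI50. TGI denotes the concentration required for complete inhibition of growth.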

Experiments:
Assay in all cases: DTP human tumour cell line panel, 48 h
[1] = tested on: SK-MEL-5 melanoma
[2] = tested on: HT29 colon
[3] = tested on: OVCAR-4 ovarian
[4] = tested on: SF-539 CNS
[5] = tested on: A549 NSCLC
[6] = tested on: TK-10 renal
[7] = tested on: SK-MEL-2 melanoma
[8] = tested on: T-47D breast
[9] = tested on: PC-3 prostate
[10] = tested on: MDA-MB-231 breast

## COC(=O)NC(=Nc1ccc(Oc2ccccc2)cc1NC=O)NC(=O)OC
[1]
  TGI: > 100 µM
[2]
  TGI: 2.96 µM
[3]
  TGI: > 100 µM
[4]
  TGI: 2.49 µM
[5]
  TGI: > 100 µM
[6]
  TGI: > 100 µM

## COc1ccc2c(c1)[n+]([O-])c(-c1ccc(Br)cc1)c(N)[n+]2[O-]
[1]
  TGI: 36.5 µM
[2]
  TGI: > 100 µM
[3]
  TGI: > 100 µM
[4]
  TGI: > 100 µM
[7]
  TGI: > 100 µM
[5]
  TGI: > 100 µM

## C[C@]12CCC[C@H](O)[C@H]1C[C@H](CO)CC2
[2]
  TGI: > 100 µM
[3]
  TGI: > 100 µM
[4]
  TGI: > 100 µM
[7]
  TGI: > 100 µM
[5]
  TGI: > 100 µM
[6]
  TGI: > 100 µM

## C/C=C(/CCC1NCCC2c3ccccc3NC12)[Si](C)(C)C (stereo unspecified)
[1]
  TGI: 26 µM
[2]
  TGI: 8.53 µM
[3]
  TGI: 20.9 µM
[4]
  TGI: 29.5 µM
[7]
  TGI: 26.7 µM
[5]
  TGI: 29.2 µM
[6]
  TGI: 28.8 µM

## NCCCCCCCCCCCn1c2c(c3ccccc3c1=O)C(=O)c1ccccc1-2
[1]
  GI50: 10.3 µM
  TGI: 29.5 µM
[8]
  GI50: 4.42 µM
  TGI: 26.6 µM
[9]
  GI50: 2.26 µM
  TGI: 7.12 µM
[3]
  GI50: 2.86 µM
  TGI: 8.63 µM
[4]
  GI50: 20.6 µM
  TGI: 40.2 µM
[5]
  GI50: 20 µM
  TGI: 74.7 µM
[10]
  GI50: 3.75 µM
  TGI: 15.2 µM
[6]
  GI50: 3.14 µM
  TGI: 8.97 µM

## Cc1cc(Cl)ccc1NC(=O)CCCC(=O)C1CCC/C1=N\NC(=O)CC#N (stereo unspecified)
[1]
  TGI: > 100 µM
[2]
  TGI: > 100 µM
[3]
  TGI: > 100 µM
[4]
  TGI: > 100 µM
[7]
  TGI: > 100 µM
[5]
  TGI: > 100 µM
[6]
  TGI: > 100 µM

## CO[C@]12C=C/C(=C(/C(=O)OCc3cccnc3)C(=O)CCCCCCCC[C@@]3(OC)C=C/C(=C(/C(=O)OCc4cccnc4)C(=O)CCCCCCCC1)O3)O2
[1]
  GI50: 0.856 µM
  TGI: 1.64 µM
[8]
  GI50: 2.21 µM
  TGI: > 50 µM
[9]
  GI50: 1.74 µM
  TGI: > 50 µM
[2]
  GI50: 1.7 µM
  TGI: > 50 µM
[4]
  GI50: 1.64 µM
  TGI: 7.91 µM
[7]
  GI50: 1.34 µM
  TGI: 4 µM
[5]
  GI50: 1.65 µM
  TGI: 9.2 µM
[10]
  GI50: 2.25 µM
  TGI: > 50 µM
[6]
  GI50: 2.93 µM
  TGI: 18.9 µM

## C1COCCOCCOCCOCCOCCO1.[Cl][Sn]([Cl])([c]1ccccc1)[c]1ccccc1
[1]
  GI50: 4.86 µM
  TGI: 17.2 µM
[2]
  GI50: 7.28 µM
  TGI: 18.9 µM
[3]
  GI50: 12.3 µM
  TGI: 26.3 µM
[4]
  GI50: 2.94 µM
  TGI: 8.53 µM
[7]
  GI50: 1.7 µM
  TGI: 3.25 µM
[5]
  GI50: 20.2 µM
  TGI: 34.4 µM
[6]
  GI50: 2.78 µM
  TGI: 7.01 µM

## CCOC(=O)C1=C(C)N(Cc2ccccc2)C(=O)C1CC#N (stereo unspecified)
[2]
  TGI: > 100 µM
[3]
  TGI: > 100 µM
[4]
  TGI: > 100 µM
[7]
  TGI: > 100 µM
[5]
  TGI: > 100 µM

## COc1ccc(-c2nc(Nc3ccc(-c4nc5ccccc5[nH]4)cc3)nc(N3CCOCC3)n2)cc1
[1]
  GI50: 1.79 µM
  TGI: 3.36 µM
[9]
  GI50: 2.39 µM
  TGI: 6.66 µM
[2]
  GI50: 2.23 µM
  TGI: 5.39 µM
[3]
  GI50: 3.13 µM
  TGI: 13 µM
[4]
  GI50: 1.63 µM
  TGI: 3.72 µM
[7]
  GI50: 2.33 µM
  TGI: 5.49 µM
[5]
  GI50: 3.24 µM
  TGI: > 100 µM
[10]
  GI50: 1.63 µM
  TGI: 4.76 µM
[6]
  GI50: 2.91 µM
  TGI: 8.54 µM

## Cn1cc(-c2csc(-c3cn(CCCCN4CCCCC4)c4ccc(F)cc34)n2)c2cccnc21
[8]
  GI50: 15.7 µM
  TGI: 41.4 µM
[2]
  GI50: 1.7 µM
  TGI: 3.16 µM
[3]
  GI50: 1.59 µM
  TGI: 2.94 µM
[7]
  GI50: 2.3 µM
  TGI: 5.98 µM
[5]
  GI50: 1.67 µM
  TGI: 3.04 µM
[6]
  GI50: 1.58 µM
  TGI: 2.92 µM

## O=S(=O)(c1ccc(Br)cc1)N1CCN(S(=O)(=O)c2ccc(Br)cc2)CC1
[1]
  TGI: > 100 µM
[8]
  TGI: > 100 µM
[9]
  TGI: > 100 µM
[2]
  TGI: > 100 µM
[3]
  TGI: > 100 µM
[7]
  TGI: > 100 µM
[5]
  TGI: > 100 µM
[10]
  TGI: > 100 µM
[6]
  TGI: > 100 µM

## CSCC[C@H](NC(=O)[C@H](CC(C)C)NC(=O)[C@@H](Cc1ccccc1)NC(=O)CNC(=O)[C@@H](NC(=O)[C@H](C)NC(=O)[C@H](Cc1c[nH]c2ccccc12)NC(=O)[C@H](CCC(N)=O)NC(=O)[C@H](N)CC(N)=O)C(C)C)C(N)=O
[1]
  TGI: > 12.5 µM
[8]
  TGI: > 12.5 µM
[9]
  TGI: > 12.5 µM
[2]
  TGI: > 12.5 µM
[3]
  TGI: > 12.5 µM
[4]
  TGI: > 12.5 µM
[5]
  TGI: > 12.5 µM
[10]
  TGI: > 12.5 µM
[6]
  TGI: > 12.5 µM

## N#Cc1ccsc1NC(=O)COC(=O)c1cccc(S(=O)(=O)N2CCc3ccccc32)c1
[1]
  GI50: 21.1 µM
  TGI: > 100 µM
[8]
  GI50: 37.5 µM
  TGI: > 100 µM
[9]
  GI50: 27.1 µM
  TGI: > 100 µM
[2]
  GI50: 14.5 µM
  TGI: > 100 µM
[3]
  GI50: 64.7 µM
  TGI: > 100 µM
[4]
  GI50: 15.1 µM
  TGI: > 100 µM
[7]
  GI50: > 100 µM
  TGI: > 100 µM
[5]
  GI50: 45.2 µM
  TGI: > 100 µM
[6]
  GI50: > 100 µM
  TGI: > 100 µM

## CCOC(=O)c1ccc2c(c1)nc(/C=C/c1ccc(Cl)cc1)n2-c1cc(C(C)(C)C)[nH]n1
[1]
  GI50: 3.63 µM
  TGI: 28.3 µM
[8]
  GI50: 5.82 µM
  TGI: 52.4 µM
[9]
  GI50: 5.85 µM
  TGI: 47 µM
[2]
  GI50: 11.3 µM
  TGI: > 100 µM
[3]
  GI50: 1.9 µM
  TGI: 7.31 µM
[4]
  GI50: 2.09 µM
  TGI: 5.09 µM
[5]
  GI50: 3.64 µM
  TGI: 19.7 µM
[10]
  GI50: 2.37 µM
  TGI: 7.57 µM
[6]
  GI50: 3.11 µM
  TGI: 7.2 µM

## NC(=O)c1ncn(CCN2CCN(C(=O)NCCCCCCNC(=O)N3CCN(CCn4cnc(C(N)=O)c4N)CC3)CC2)c1N
[1]
  TGI: > 100 µM
[2]
  TGI: > 100 µM
[3]
  TGI: > 100 µM
[4]
  TGI: > 100 µM
[7]
  TGI: > 100 µM
[5]
  TGI: > 100 µM
[6]
  TGI: > 100 µM

## O=C(/C=C/c1ccccc1Cl)c1cccc2ccccc12
[1]
  TGI: 34 µM
[2]
  TGI: 23.6 µM
[3]
  TGI: 16.6 µM
[4]
  TGI: 23.3 µM
[7]
  TGI: 35.5 µM
[5]
  TGI: 34 µM
[6]
  TGI: 29.2 µM

## CCCCCCCCCCCCCCCC(=O)N[C@H](/C=C/[C@H](O)CCCCCCCCCCCCC)CO
[1]
  GI50: > 100 µM
  TGI: > 100 µM
[8]
  GI50: > 100 µM
  TGI: > 100 µM
[9]
  GI50: > 100 µM
  TGI: > 100 µM
[2]
  GI50: > 100 µM
  TGI: > 100 µM
[3]
  GI50: > 100 µM
  TGI: > 100 µM
[4]
  GI50: > 100 µM
  TGI: > 100 µM
[5]
  GI50: > 100 µM
  TGI: > 100 µM
[10]
  GI50: > 100 µM
  TGI: > 100 µM
[6]
  GI50: > 100 µM
  TGI: > 100 µM
